In assay [1] the test system is Chinese hamster ovary (CHO) cells. Kind of assay: Growth inhibition assay, CHO cells. It counts as cell-based. Particulars: 48 hours, cell counting, read-out: IC50 CHO (concentration required to inhibit cell growth by 50% relative to controls). The method, then: (§1) Growth inhibition was measured in three human carcinoma cell lines (GBK KB and CHO) using a previously described […] assay. Hwang, J.-M. et al., Chin. Med. J (Taipei), 51, 166-175 (1993). Human oral epidermoid carcinoma cells (KB cell line), human cervical carcinoma cells of ME 180 (GBM8401) and Chinese hamster ovary (CHO) cells grown in plateau phase were used in all experiments. Each cell line was further divided into control and experimental groups, respectively.
(§2) Stock solutions of the test compounds were prepared in DMSO and diluted with DMEM to give a final concentration of DMSO of 0.2%. Controls were performed with DMSO or with medium alone. The medium was removed and each well was rinsed with 100 μL PBS 48 hours after addition of the test compound to the culture. The cells were then incubated with sterile 0.5% trypsin, 0.2% EDTA in PBS for 20 minutes at 37° C. The detached cells from each well were suspended in DMEM and dispersed into single cells by gentle pipeting through an Eppendorf pipette and cell growth was determined directly by counting the cells in a Neubauer counting chamber using phase contrast microscopy. Inhibition was calculated by comparison of the mean values of the test compound (N=3) with the control (N=6−8) activity: (1-test compound/control) ×100. Inhibition was statistically significant compared to that of control (Student's t Test; P=0.05). IC50 values (concentration required to inhibit cell growth by 50%) were determined for each agent which was derived by interpolation of a log inhibitor concentration versus response plot using four or more different concentrations of the compound spanning the 50% inhibition point.

Assay [2] relates to Human oral epidermoid carcinoma cells (KB cell line). As to the kind of experiment: Growth inhibition assay, KB cell line. Particulars: 48 hours, cell counting, read-out: IC50 KB (concentration required to inhibit cell growth by 50% relative to controls). The format is cell-based. The protocol:
as §1, §2

The test system of assay [3] is GBM cell line (human cervical carcinoma cells of ME 180 (GBM8401)). Kind of assay: Growth inhibition assay, GBM cell line. Particulars: 48 hours, cell counting, read-out: IC50 GBM (concentration required to inhibit cell growth by 50% relative to controls). The format is cell-based. The method, then:
as §1, §2

Assay [4] has as its system iron-induced lipid peroxidation in rat brain homogenates. Kind of assay: Lipid peroxidation assay (TBA). The format is biochemical, Wistar rats. The following applies: ferrous ion 200 μM, 37° C. 30 min. The method, then: Rat brain homogenate was prepared from the brains of freshly killed Wistar rats and its peroxidation. In the presence of iron ions was measured by the thiobarbituric acid (TBA). Teng, C. M. et al., Eur. J. Pharmacol., 303, 129-139 (1996). Tetramethoxypropane was used as a standard, and the results were expressed as nanomoles of malondialdehyde equivalents per milligram of protein of rat brain homogenates. In brief, whole brain tissue, excluding the cerebellum, was washed and homogenized in 10 volumes of ice-cold Krebs buffer (10 mM N-2 hydroxyethyl-piperazine-N′-2-ethanesulfonic acid (Hepes), 10 mM glucose, 140 mM NaCl, 3.6 mM KCl, 1.5 mM CaCl2, 1.4 mM KH2PO4, 0.7 mM MgSO4, pH 7.4) using a glass Dounce homogenizer. […] The reaction mixture with test compounds or vehicle was incubated for 10 min, then stimulated by addition of ferrous ion (200 μM freshly prepared), and maintained at 37° C. for 30 min. The reactions were terminated by adding […] of ice-cold trichloroacetic acid solution (4% (w/v) in 0.3 N HCl) and […], of thiobarbituric acid-reactive substance reagent (0.5% (w/v) thiobarbituric acid in 50% (v/v) acetic acid). After boiling for 15 min, the samples were cooled and extracted with n-butanol. The extent of lipid peroxidation was estimated as thiobarbituric acid-reactive substances and was read at 532 nm in a spectrophotometer (Shimadzu UV-160).

pIC50: −log10 of the molar value.

For the compound `CCCC(=O)Oc1c2cccc(Cl)c2cc2cccc(Cl)c12` [Compound 3h], the pIC50 was 7.00 in assay [1], 3.26 in assay [2] and 3.24 in assay [3]. Also, in assay [4] (1 μM compound), the “% Inhibition (1 μM), relative percentage of inhibition” value was determined as 11.8%. Also, in assay [4] (10 μM compound), the “% Inhibition (10 μM), relative percentage of inhibition” value amounted to 17.7%.

These data come from patent US6369246B2, “Synthesis and pharmaceuticals of novel 9-substituted-1, 5-dichloroanthracene analogs” (Dr. Keith Chan, GloboAsia, LLC, priority 1999, dated 2002).
